Laboratory results reported in patent US9981940B2, “Aryl sulfide derivatives and aryl sulfoxide derivatives as acaricides and insecticides” (BAYER CROPSCIENCE AKTIENGESELLSCHAFT, priority 2013, dated 2018).

What was measured:
Tetranychus urticae = Tetranychus urticae spray test, OP-resistant (TETRUR); assay type: in vivo; conditions: application rate of 500 g/ha, after 6 days; for pest or weed control at 500 g/ha: Tetranychus urticae, 144 h, read-out: efficacy
Description: Tetranychus urticae—Spray Test, OP-Resistant (TETRUR)
• Solvent: 78.0 parts by weight of acetone • 1.5 parts by weight of dimethylformamide • Emulsifier: 0.5 part by weight of alkylaryl polyglycol ether
To produce an appropriate active ingredient formulation, 1 part by weight of active ingredient is mixed with the specified amounts of solvent and emulsifier, and the concentrate is diluted to the desired concentration with emulsifier-containing water.
Discs of bean leaves (Phaseolus vulgaris) infested by all stages of the greenhouse red spider mite (Tetranychus urticae) are sprayed with an active ingredient formulation of the desired concentration.
After 6 days, the efficacy in % is determined 100% means that all the spider mites have been killed; 0% means that none of the spider mites have been killed.

[1] = log P by HPLC (OECD Guideline 117), method [b] neutral range; assay type: physicochemical; conditions: for logP[b]: method [b] neutral range; for chromatographic logP: reversed-phase C18 HPLC column, neutral range, pH 7.8
Description: (§1) The log P values were determined analogously to OECD Guideline 117 (EC Directive 92/69/EEC) by HPLC (high-performance liquid chromatography) using reversed-phase columns (C 18), by the following methods:
[b] The LC-MS determination in the neutral range is effected at pH 7.8 with 0.001 molar aqueous ammonium hydrogencarbonate solution and acetonitrile as eluents; linear gradient from 10% acetonitrile to 95% acetonitrile.

[2] = log P by HPLC (OECD Guideline 117), method [a] acidic range; assay type: physicochemical; conditions: for logP[a]: HPLC, method [a] acidic range; for chromatographic logP: reversed-phase C18 HPLC column, acidic range
Description: as §1
[a] The LC-MS determination in the acidic range is effected at pH 2.7 with 0.1% aqueous formic acid and acetonitrile (contains 0.1% formic acid) as eluents; linear gradient from 10% acetonitrile to 95% acetonitrile.

[3] = pH 2.7, HPLC method [a], read-out: logP[a]
[4] = pH 2.7, HPLC, pH 2.7, read-out: log P[a]

SMILES	efficacy (Tetranychus urticae) [%]	logP[b] ([1]; HPLC)	logP[a] [2]	pest or weed control at 500 g/ha (Tetranychus urticae) [%]	chromatographic logP ([1]; HPLC)	chromatographic logP [2, 3]	chromatographic logP [2, 4]	chromatographic logP ([1]; HPLC method [b])
Cc1cc(F)c(-n2ncoc2=O)cc1SCC(F)(F)F [Example 454]	90	2.83	2.85	–	–	–	–	–
CNc1nn(-c2cc(SCC(F)(F)F)c(C)cc2F)c(=O)n1N [Example 218]	90	2.04	2.06	–	–	–	–	–
Cc1cc(F)c(-n2nc(Oc3ccccc3)n(C)c2=O)cc1[S+]([O-])CC(F)(F)F (stereo not shown) [Example 159]	100	2.65	2.70	–	–	–	–	–
COc1nn(-c2cc([S+]([O-])CC(F)(F)F)c(F)cc2F)c(=O)n1C (stereo not shown) [Example 169]	90	1.77	1.81	–	–	–	–	–
CC[S+]([O-])c1nn(-c2cc([S+]([O-])CC(F)(F)F)c(C)cc2F)c(=O)n1C1CC1 (stereo not shown) [Example 235]	100	1.80	1.85	–	–	–	–	–
Cc1cc(F)c(-n2nc(C(C)(C)C)oc2=O)cc1SCC(F)(F)F [Example 449]	90	4.25	4.30	–	–	–	–	–
Cc1ccc(-n2nnn(C)c2=O)cc1SCC(F)(F)F [Example 296]	90	3.04	3.07	–	–	–	–	–
CCC(C)c1nn(-c2cc([S+]([O-])CC(F)(F)F)c(C)cc2F)c(=O)n1C1CC1 (racemic) [Example 86]	100	2.79	2.86	–	–	–	–	–
Cc1cc(F)c(-n2ncn(Cc3ccccc3)c2=O)cc1SCC(F)(F)F [Example 368]	100	3.34	3.38	–	–	–	–	–
Cc1cc(F)c(-n2nc(OC(C)C)n(C3CC3)c2=O)cc1[S+]([O-])CC(F)(F)F (stereo not shown) [Example 100]	100	2.79	2.82	–	–	–	–	–
Cc1cc(F)c(-n2ncn(C(C)C)c2=O)cc1[S+]([O-])CC(F)(F)F (stereo not shown) [Example 6, 2-{2-Fluoro-4-methyl-5-[(2,2,2-trifluoroethyl)sulphinyl]phenyl}-4-isopropyl-2,4-dihydro-3H-1,2,4-triazol-3-one]	–	–	–	80	2.02	1.88	1.88	–
CC1=C(C)C(=O)N(c2cc(SCC(F)(F)F)c(C)cc2F)C1=O [Example 339, 1-{2-Fluoro-4-methyl-5-[(2,2,2-trifluoroethyl)sulphanyl]phenyl}-3,4-dimethyl-1H-pyrrole-2,5-dione]	–	–	–	90	3.61	3.6	3.6	–
CCCSc1nn(-c2cc(SCC(F)(F)F)c(C)cc2F)c(=O)n1C1CC1 [Example 265]	100	4.32	4.41	–	–	–	–	–
Cc1cc(F)c(-n2nc(N(C)C)n(C3CC3)c2=O)cc1SCC(F)(F)F [Example 416]	90	3.80	3.86	–	–	–	–	–
Cc1cc(F)c(-n2nc(S(C)(=O)=O)n(C)c2=O)cc1[S+]([O-])CC(F)(F)F (stereo not shown) [Example 421, 2-{2-Fluoro-4-methyl-5-[(2,2,2-trifluoroethyl)sulphinyl]phenyl}-4-methyl-5-(methylsulphonyl)-2,4-dihydro-3H-1,2,4-triazol-3-one]	–	–	–	100	1.84	1.88	1.88	–
COCCc1nn(-c2cc([S+]([O-])CC(F)(F)F)c(C)cc2F)c(=O)n1C1CC1 (racemic) [Example 76]	100	1.97	2.03	–	–	–	–	–
Cc1cc(F)c(-n2nc(C3CCCCC3)n(C3CC3)c2=O)cc1[S+]([O-])CC(F)(F)F (stereo not shown) [Example 361]	100	3.31	3.34	–	–	–	–	–
CCCSc1nn(-c2cc([S+]([O-])CC(F)(F)F)c(C)cc2F)c(=O)n1C1CC1 (stereo not shown) [Example 266]	100	3.17	3.24	–	–	–	–	–
Cc1cc(F)c(-n2nc([S+](C)[O-])n(C3CC3)c2=O)cc1SCC(F)(F)F (stereo not shown) [Example 230]	100	2.40	2.45	–	–	–	–	–
Cc1cc(F)c(-n2ncn(N)c2=O)cc1SCC(F)(F)F [Example 211]	100	2.01	2.02	–	–	–	–	–
COc1nn(-c2cc([S+]([O-])CC(F)(F)F)c(F)cc2F)c(=O)n1C1CC1 (stereo not shown) [Example 170]	100	2.11	2.15	–	–	–	–	–

SMILES	efficacy (Tetranychus urticae) [%]	logP[b] ([1]; HPLC)	logP[a] [2]	pest or weed control at 500 g/ha (Tetranychus urticae) [%]	chromatographic logP ([1]; HPLC)	chromatographic logP [2, 3]	chromatographic logP [2, 4]	chromatographic logP ([1]; HPLC method [b])
CC1=C(C)C(=O)N(c2cc([S+]([O-])CC(F)(F)F)c(C)cc2F)C1=O (stereo not shown) [Example 341]	90	2.49	2.52	–	–	–	–	–
CCCc1nn(-c2cc([S+]([O-])CC(F)(F)F)c(C)cc2F)c(=O)n1C1CC1 (racemic) [Example 80]	100	2.49	2.56	–	–	–	–	–
Cc1cc(F)c(-n2nc(N(C)C)n(C)c2=O)cc1[S+]([O-])CC(F)(F)F (racemic) [Example 191]	90	1.84	1.86	–	–	–	–	–
CCn1c(C(F)(F)F)nn(-c2ccc(C)c(SCC(F)(F)F)c2)c1=O [Example 54]	90	4.32	4.38	–	–	–	–	–
CCCCc1nn(-c2cc([S+]([O-])CC(F)(F)F)c(C)cc2F)c(=O)n1C1CC1 (racemic) [Example 72]	90	2.88	2.94	–	–	–	–	–
Cc1cc(F)c(-n2nc(C(C)C)n(N)c2=O)cc1S(=O)(=O)CC(F)(F)F [Example 417]	100	2.21	2.25	–	–	–	–	–
Cc1cc(F)c(-n2c(C)c(C)sc2=NCC(F)(F)F)cc1[S+]([O-])CC(F)(F)F (stereo not shown) [Example 344]	–	–	–	100	–	2.17	–	3.68
COC1=CC(=O)N(c2cc(SCC(F)(F)F)c(C)cc2C)C1 [Example 312]	90	2.81	2.88	–	–	–	–	–
Cc1cc(F)c(-n2nc(C(F)(F)F)n(C)c2=O)cc1SCC(F)(F)F [Example 9, 2-{2-Fluoro-4-methyl-5-[(2,2,2-trifluoroethyl)sulphanyl]phenyl}-4-methyl-5-(trifluoromethyl)-2,4-dihydro-3H-1,2,4-triazol-3-one]	–	–	–	100	3.53	3.58	3.58	–
CCN(CC)c1nn(-c2cc(SCC(F)(F)F)c(C)cc2F)c(=O)n1N [Example 222]	90	3.17	3.22	–	–	–	–	–
Cc1cc(F)c(-n2nc(OCC(C)C)n(C)c2=O)cc1SCC(F)(F)F [Example 148]	90	3.92	4.03	–	–	–	–	–
COC1=CC(=O)N(c2cc([S+]([O-])CC(F)(F)F)c(C)cc2Cl)C1 (stereo not shown) [Example 318]	90	1.94	1.99	–	–	–	–	–
Cc1cc(F)c(-n2nc([S+](C)[O-])n(C)c2=O)cc1[S+]([O-])CC(F)(F)F (stereo not shown) [Example 233]	100	1.44	1.47	–	–	–	–	–
CCCOc1nn(-c2cc(SCC(F)(F)F)c(C)cc2F)c(=O)n1C1CC1 [Example 113]	90	3.92	4.00	–	–	–	–	–
Cc1cc(F)c(-n2nc(Br)n(C(C)(C)C)c2=O)cc1[S+]([O-])CC(F)(F)F (stereo not shown) [Example 441]	100	2.98	3.02	–	–	–	–	–
Cc1cc(F)c(-n2nc(SC(F)(F)F)n(C3CC3)c2=O)cc1[S+]([O-])CC(F)(F)F (stereo not shown) [Example 264]	100	2.98	3.05	–	–	–	–	–
COn1c(C(C)C)nn(-c2cc([S+]([O-])CC(F)(F)F)c(C)cc2F)c1=O (stereo not shown) [Example 419]	100	2.42	2.46	–	–	–	–	–
Cc1cc(F)c(-n2nc(OCC(C)(C)C)n(C3CC3)c2=O)cc1[S+]([O-])CC(F)(F)F (racemic) [Example 387]	90	3.52	3.60	–	–	–	–	–
Cc1cc(F)c(-n2nc(SC(C)C)n(C3CC3)c2=O)cc1SCC(F)(F)F [Example 268]	100	4.28	4.37	–	–	–	–	–
C=CCn1c(SCC)nn(-c2cc([S+]([O-])CC(F)(F)F)c(C)cc2F)c1=O (stereo not shown) [Example 431]	90	2.92	2.83	–	–	–	–	–
